Measurements from US20240247080A1, “GLP1/GIP/NPY2 RECEPTOR TRIPLE AGONISTS” (Boehringer Ingelheim International GmbH, priority 2022, published 2024).
Read-outs that look alike come from different tables or passages of the source. Starred links: 1 amine or outer side, 2 acyl side, 3 side chain; linkers in the order of their positions; H or OH if unused. Non-standard residues stand in square brackets, D forms with d. Groups on a side chain read outwards from the residue. *: point of attachment. C20 diacid = O=C(O)CCCCCCCCCCCCCCCCCCC(=O)*; C18 diacid = O=C(O)CCCCCCCCCCCCCCCCC(=O)*; γGlu = O=C(O)[C@H](CCC(=O)[*:2])N[*:1]; εLys = N[C@@H](CCCCN[*:1])C(=O)[*:2]; hArg = N=C(N)NCCCC[C@H](N)C(=O)O; AEEA = NCCOCCOCC(=O)O; Aib = CC(C)(N)C(=O)O

Experiments:
Type in all cases: cell-based
Conditions in all cases: CreLuc reporter gene assay
hNPY2R = molecular target: T1, hNPY2R (Homo sapiens, UniProt P49146); experiment: hNPY2R CreLuc reporter gene assay in 0.5% and 100% plasma
T1 construct: expressed in transfected cells; host or cells: HEK-293 cells carrying a CRE-luciferase reporter gene
T1 sequence (P49146 1-381): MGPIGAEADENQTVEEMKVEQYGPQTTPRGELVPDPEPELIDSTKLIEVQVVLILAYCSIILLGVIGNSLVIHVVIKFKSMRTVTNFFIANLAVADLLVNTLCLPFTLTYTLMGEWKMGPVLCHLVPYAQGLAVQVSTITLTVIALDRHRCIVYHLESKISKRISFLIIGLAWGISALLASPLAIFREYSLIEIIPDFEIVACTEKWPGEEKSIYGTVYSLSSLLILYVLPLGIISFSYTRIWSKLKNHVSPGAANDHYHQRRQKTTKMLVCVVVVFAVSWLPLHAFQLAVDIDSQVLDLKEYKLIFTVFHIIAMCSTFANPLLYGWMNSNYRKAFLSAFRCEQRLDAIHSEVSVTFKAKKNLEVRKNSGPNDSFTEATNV
Method in brief: (§1)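 Agonist EC50s came from 8-concentration curves over four decades, fitted by non-linear variable-slope regression of CRE-driven luciferase luminescence. Cells were exposed 4 h at 37 °C, in buffer with 0.5% human plasma or in 100% plasma; GIPR was expressed in CHO cells, GLP-1R and NPY2R in HEK cells.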

hGLP1R = molecular target: T2, hGLP1R (Homo sapiens, UniProt P43220); experiment: hGLP1R CreLuc reporter gene assay in 0.5% and 100% plasma
T2 construct: expressed in transfected cells; host or cells: HEK-293 cells carrying a CRE-luciferase reporter gene
T2 sequence (P43220 24-463): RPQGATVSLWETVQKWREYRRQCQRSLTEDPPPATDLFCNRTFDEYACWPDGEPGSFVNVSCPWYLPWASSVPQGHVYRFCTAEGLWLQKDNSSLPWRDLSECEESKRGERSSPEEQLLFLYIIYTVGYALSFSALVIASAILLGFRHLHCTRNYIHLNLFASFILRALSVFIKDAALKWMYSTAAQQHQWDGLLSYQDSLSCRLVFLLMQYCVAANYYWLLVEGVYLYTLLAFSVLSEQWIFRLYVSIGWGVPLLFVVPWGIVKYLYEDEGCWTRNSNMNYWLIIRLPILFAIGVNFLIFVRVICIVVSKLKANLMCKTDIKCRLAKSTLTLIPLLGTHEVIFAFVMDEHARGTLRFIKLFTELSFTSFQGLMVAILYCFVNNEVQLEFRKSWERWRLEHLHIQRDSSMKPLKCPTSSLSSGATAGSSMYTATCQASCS
Method in brief: as §1

hGIPR = molecular target: T3, hGIPR (Homo sapiens, UniProt P48546); experiment: hGIPR CreLuc reporter gene assay in 0.5% and 100% plasma
T3 construct: expressed in transfected cells; host or cells: CHO cells carrying a CRE-luciferase reporter gene
T3 sequence (P48546 22-466): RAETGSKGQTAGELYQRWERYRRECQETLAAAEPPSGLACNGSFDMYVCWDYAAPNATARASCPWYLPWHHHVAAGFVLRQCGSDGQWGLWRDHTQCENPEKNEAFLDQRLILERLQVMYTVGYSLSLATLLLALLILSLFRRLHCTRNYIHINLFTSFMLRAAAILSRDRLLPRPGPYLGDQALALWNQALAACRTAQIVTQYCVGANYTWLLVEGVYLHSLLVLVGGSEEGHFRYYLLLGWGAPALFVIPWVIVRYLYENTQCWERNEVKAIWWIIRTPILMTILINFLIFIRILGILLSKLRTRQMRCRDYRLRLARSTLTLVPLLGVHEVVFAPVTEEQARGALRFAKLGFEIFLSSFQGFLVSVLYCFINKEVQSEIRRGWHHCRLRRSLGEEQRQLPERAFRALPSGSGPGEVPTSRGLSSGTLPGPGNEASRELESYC
Method in brief: as §1

[1] = 0.5% human plasma, read-out: hNPY2R 0.5% hP
[2] = 100% human plasma, read-out: hNPY2R 100% hP
[3] = 0.5% human plasma, read-out: hGLP1R 0.5% hP
[4] = 100% human plasma, read-out: hGLP1R 100% hP
[5] = 0.5% human plasma, read-out: hGIPR 0.5% hP
[6] = 100% human plasma, read-out: hGIPR 100% hP

Row | Compound | EC50 (hNPY2R; [1]) [nM] | EC50 (hNPY2R; [2]) [nM] | EC50 (hGLP1R; [3]) [nM] | EC50 (hGLP1R; [4]) [nM] | EC50 (hGIPR; [5]) [nM] | EC50 (hGIPR; [6]) [nM]
1 | H-Y[Aib]EGTFTSDYSI[Aib]LEKQAQ[Aib]AFVEWLIK([εLys-γGlu-γGlu-γGlu-γGlu-γGlu-γGlu-C20 diacid])GGPSSGASLRHYYNWLT[hArg]QR[dY]-NH2 [Compound 71, Y-Aib-E-G-T-F-T-S-D-Y-S-I-Aib-L-E-K-Q-A-Q-Aib-A-F-V-E-W-L-I-K(1,3)-G-G-P-S-S-G-A-S-L-R-H-Y-Y-N-W-L-T-hArg-Q-R-DTyr-NH2.C20DA-gGlu-gGlu-gGlu-gGlu-gGlu-gGlu-eLys(1,2)] | > 100 | > 1000 | 0.14 | 1.13 | 0.13 | 0.64
2 | H-Y[Aib]EGTFTSDYSI[Aib]LEKQAQ[Aib]AFVEWLIK([εLys-γGlu-γGlu-γGlu-γGlu-γGlu-γGlu-C20 diacid])GGPSSGASLRHYLNL[Aib]TRQRY-NH2 [Compound 17, Y-Aib-E-G-T-F-T-S-D-Y-S-I-Aib-L-E-K-Q-A-Q-Aib-A-F-V-E-W-L-I-K(1,3)-G-G-P-S-S-G-A-S-L-R-H-Y-L-N-L-Aib-T-R-Q-R-Y-NH2.C20DA-gGlu-gGlu-gGlu-gGlu-gGlu-gGlu-eLys(1,2)] | > 100 | – | 0.14 | – | 0.43 | –
3 | H-Y[Aib]EGTFTSDYSI[Aib]LEEQAQ[Aib]AFVEWLIK([εLys-γGlu-γGlu-γGlu-γGlu-γGlu-γGlu-C20 diacid])GGPSSGQSLRHYYNWLTRQRY-NH2 [Compound 31, Y-Aib-E-G-T-F-T-S-D-Y-S-I-Aib-L-E-E-Q-A-Q-Aib-A-F-V-E-W-L-I-K(1,3)-GGPSSGQSLRHYYNWLTRQRY-NH2.C20DA-gGlu-gGlu-gGlu-gGlu-gGlu-gGlu-eLys(1,2)] | 13.4 | – | 0.06 | – | 0.15 | –
4 | H-Y[Aib]EGTFTSDYSI[Aib]LEKQAQ[Aib]AFVQWLIK([AEEA-AEEA-γGlu-γGlu-γGlu-γGlu-γGlu-C20 diacid])GGPESGASLRHYYNWLTRQRY-NH2 [Compound 32, Y-Aib-E-G-T-F-T-S-D-Y-S-I-Aib-L-E-K-Q-A-Q-Aib-A-F-V-Q-W-L-I-K(1,3)-GGPESGASLRHYYNWLTRQRY-NH2.C20DA-gGlu-gGlu-gGlu-gGlu-gGlu-OEG-OEG(1,2)] | 12.2 | 49.3 | 0.07 | – | 0.16 | 1.15
5 | H-Y[Aib]EGTFTSDYSI[Aib]LEKQAQ[Aib]AFVEWLIK([εLys-γGlu-γGlu-γGlu-γGlu-γGlu-γGlu-C20 diacid])GGPSSGASLR[Aib]YYNWLTRQRY-NH2 [Compound 182, Y-Aib-E-G-T-F-T-S-D-Y-S-I-Aib-L-E-K-Q-A-Q-Aib-A-F-V-E-W-L-I-K(1,3)-G-G-P-S-S-G-A-S-L-R-Aib-Y-Y-N-W-L-T-R-Q-R-Y-NH2.C20DA-gGlu-gGlu-gGlu-gGlu-gGlu-gGlu-eLys(1,2)] | 70.4 | – | 0.13 | – | 0.21 | 1.39
6 | H-Y[Aib]EGTFTSDYSI[Aib]LEKQAQ[Aib]AFVQWLIK([AEEA-AEEA-Glu-Glu-Glu-Glu-C18 diacid])GGPEEGASLRHYYNWLTRQRY-NH2 [Compound 177, Y-Aib-E-G-T-F-T-S-D-Y-S-I-Aib-L-E-K-Q-A-Q-Aib-A-F-V-Q-W-L-I-K(1,3)-GGPEEGASLRHYYNWLTRQRY-NH2.C18DA-E-E-E-E-OEG-OEG(1,2)] | 18.7 | 115 | 0.16 | – | 0.28 | –
7 | H-Y[Aib]EGTFTSDYSI[Aib]LEKQAQ[Aib]AFVEWLIK([AEEA-AEEA-γGlu-γGlu-γGlu-γGlu-γGlu-C18 diacid])GGPSSPASLRHYYNWLTRQRY-NH2 [Compound 140, Y-Aib-E-G-T-F-T-S-D-Y-S-I-Aib-L-E-K-Q-A-Q-Aib-A-F-V-E-W-L-I-K(1,3)-GGPSSPASLRHYYNWLTRQRY-NH2.C18DA-gGlu-gGlu-gGlu-gGlu-gGlu-OEG-OEG(1,2)] | 12.4 | 45.9 | 0.12 | 3.11 | 0.22 | –

Second part, the compound after the results:

Row | EC50 (hNPY2R; [1]) [nM] | EC50 (hNPY2R; [2]) [nM] | EC50 (hGLP1R; [3]) [nM] | EC50 (hGLP1R; [4]) [nM] | EC50 (hGIPR; [5]) [nM] | EC50 (hGIPR; [6]) [nM] | Compound
8 | > 99.9 | > 999 | 0.11 | – | 0.17 | 1.07 | CC[C@H](C)[C@H](NC(=O)[C@H](CC(C)C)NC(=O)[C@H](Cc1c[nH]c2ccccc12)NC(=O)[C@H](CCC(=O)O)NC(=O)[C@@H](NC(=O)[C@H](Cc1ccccc1)NC(=O)[C@H](C)NC(=O)C(C)(C)NC(=O)[C@H](CCC(N)=O)NC(=O)[C@H](C)NC(=O)[C@H](CCC(N)=O)NC(=O)[C@H](CCCCN)NC(=O)[C@H](CCC(=O)O)NC(=O)[C@H](CC(C)C)NC(=O)C(C)(C)NC(=O)[C@@H](NC(=O)[C@H](CO)NC(=O)[C@H](Cc1ccc(O)cc1)NC(=O)[C@H](CC(=O)O)NC(=O)[C@H](CO)NC(=O)[C@@H](NC(=O)[C@H](Cc1ccccc1)NC(=O)[C@@H](NC(=O)CNC(=O)[C@H](CCC(=O)O)NC(=O)C(C)(C)NC(=O)[C@@H](N)Cc1ccc(O)cc1)[C@@H](C)O)[C@@H](C)O)[C@@H](C)CC)C(C)C)C(=O)N[C@@H](CCCCNC(=O)[C@@H](N)CCCCNC(=O)CC[C@H](NC(=O)CC[C@H](NC(=O)CC[C@H](NC(=O)CC[C@H](NC(=O)CC[C@H](NC(=O)CC[C@H](NC(=O)CCCCCCCCCCCCCCCCCCC(=O)O)C(=O)O)C(=O)O)C(=O)O)C(=O)O)C(=O)O)C(=O)O)C(=O)NCC(=O)NCC(=O)N1CCC[C@H]1C(=O)N[C@@H](CO)C(=O)N[C@@H](CO)C(=O)NCC(=O)N[C@@H](C)C(=O)N[C@@H](CO)C(=O)N[C@H](CC(C)C)C(=O)N[C@@H](CCCNC(=N)N)C(=O)N[C@H](Cc1c[nH]cn1)C(=O)N[C@@H](Cc1ccc(O)cc1)C(=O)N[C@@H](Cc1ccc(O)cc1)C(=O)N[C@@H](CC(N)=O)C(=O)N[C@@H](Cc1c[nH]c2ccccc12)C(=O)N[C@@H](CC(C)C)C(=O)N[C@H](C(=O)N[C@H](CCCNC(=N)N)C(=O)N[C@@H](CCC(N)=O)C(=O)N[C@@H](CCCNC(=N)N)C(=O)N[C@H](Cc1ccc(O)cc1)C(N)=O)[C@@H](C)O [Compound 5, Y-Aib-E-G-T-F-T-S-D-Y-S-I-Aib-L-E-K-Q-A-Q-Aib-A-F-V-E-W-L-I-K(1,3)-G-G-P-S-S-G-A-S-DLeu-R-DHis-Y-Y-N-W-L-T-DArg-Q-R-DTyr-NH2.C20DA-gGlu-gGlu-gGlu-gGlu-gGlu-gGlu-eLys(1,2)]
9 | – | 15.4 | 0.16 | – | 0.32 | 2.43 | H-Y[Aib]EGTFTSDYSI[Aib]LEKQAQ[Aib]AFVQWLIK([εLys-γGlu-γGlu-γGlu-γGlu-γGlu-γGlu-C20 diacid])GGPSSYVSLRHYYNWLTRQRY-NH2 [Compound 15, Y-Aib-E-G-T-F-T-S-D-Y-S-I-Aib-L-E-K-Q-A-Q-Aib-A-F-V-Q-W-L-I-K(1,3)-GGPSSYVSLRHYYNWLTRQRY-NH2.C20DA-gGlu-gGlu-gGlu-gGlu-gGlu-gGlu-eLys(1,2)]
10 | 13.1 | 21.1 | 0.41 | – | 0.64 | 1.97 | H-Y[Aib]EGTFTSDYSI[Aib]LEKQAQ[Aib]EFVQWLIK([εLys-γGlu-γGlu-γGlu-γGlu-γGlu-γGlu-γGlu-C20 diacid])GGPSSGASLRHYYNWLTRQRY-NH2 [Compound 43, Y-Aib-E-G-T-F-T-S-D-Y-S-I-Aib-L-E-K-Q-A-Q-Aib-E-F-V-Q-W-L-I-K(1,3)-GGPSSGASLRHYYNWLTRQRY-NH2.C20DA-gGlu-gGlu-gGlu-gGlu-gGlu-gGlu-gGlu-eLys(1,2)]
11 | 18.9 | – | 0.26 | 4.39 | 0.91 | – | H-Y[Aib]EGTFTSDYSI[Aib]LEKQAQ[Aib]EFVQWLIK([γGlu-γGlu-γGlu-γGlu-γGlu-γGlu-C18 diacid])GGPSEGASLRHYYNWLTRQRY-NH2 [Compound 151, Y-Aib-E-G-T-F-T-S-D-Y-S-I-Aib-L-E-K-Q-A-Q-Aib-E-F-V-Q-W-L-I-K(1,3)-GGPSEGASLRHYYNWLTRQRY-NH2.C18DA-gGlu-gGlu-gGlu-gGlu-gGlu-gGlu(1,2)]
12 | 10.3 | 50.3 | 0.13 | – | 0.26 | – | H-Y[Aib]EGTFTSDYSI[Aib]LEKQAQ[Aib]AFVQWLIK([εLys-γGlu-γGlu-γGlu-γGlu-γGlu-C20 diacid])GGPSEPASLRHYYNWLTRQRY-NH2 [Compound 169, Y-Aib-E-G-T-F-T-S-D-Y-S-I-Aib-L-E-K-Q-A-Q-Aib-A-F-V-Q-W-L-I-K(1,3)-GGPSEPASLRHYYNWLTRQRY-NH2.C20DA-gGlu-gGlu-gGlu-gGlu-gGlu-eLys(1,2)]
